Consider two substances from patent US9269550B2, “Mass spectrometric methods for quantifying NPY 1-36 and NPY 3-36” (Georgetown University, priority 2010, dated 2016).

One assay concerns the target T1, Y1Rs (Homo sapiens, UniProt P25929).
T1 sequence (P25929 1-384): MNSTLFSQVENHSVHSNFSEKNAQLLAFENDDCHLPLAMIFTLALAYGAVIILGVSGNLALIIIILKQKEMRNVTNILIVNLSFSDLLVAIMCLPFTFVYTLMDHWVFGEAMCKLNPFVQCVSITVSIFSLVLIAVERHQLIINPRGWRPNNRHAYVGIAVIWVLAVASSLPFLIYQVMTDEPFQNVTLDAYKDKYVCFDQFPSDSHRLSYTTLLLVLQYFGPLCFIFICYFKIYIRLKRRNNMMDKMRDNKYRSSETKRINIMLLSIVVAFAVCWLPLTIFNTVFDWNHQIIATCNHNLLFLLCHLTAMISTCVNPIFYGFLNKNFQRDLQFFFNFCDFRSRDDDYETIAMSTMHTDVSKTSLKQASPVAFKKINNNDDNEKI
As to conditions: cited from earlier work.

For a further assay, the system named is SK-N-MC cells. Briefly: Cell viability in SK-N-MC cells. It counts as cell-based, human.

Regarding “NPY 3-36: 34-amino acid peptide fragment formed by dipeptidyl peptidase IV (DPPIV) cleavage of NPY 1-36”, the “activity at Y1Rs” value in the assay with Y1Rs was “inactive”. Moreover, in the assay on SK-N-MC cells, the “decrease in cell viability” value was “not”.

For “NPY 1-36: 36-amino acid peptide neurotransmitter found in the brain and autonomic nervous system”, in the assay with SK-N-MC cells, the “decrease in cell viability” value is “decrease in cell viability was achieved”.
